Source: PubChem BioAssay AID1259407 (Chemical Carcinogenesis Research Information System (CCRIS), 2018)
Activity calls are given as the source filed them. How the calls were made is not given here.

System: CCRIS mutagenicity, Ames/micronucleus/aberration tests
Experiment: CCRIS mutagenicity studies
[1] = Test System: AMES SALMONELLA TYPHIMURIUM, Strain/Indicator: TA98, Metabolic Activation: NONE, Method: PREINCUBATION
[2] = Test System: AMES SALMONELLA TYPHIMURIUM, Strain/Indicator: TA100, Metabolic Activation: NONE, Method: PREINCUBATION
[3] = Test System: AMES SALMONELLA TYPHIMURIUM, Strain/Indicator: TA1535, Metabolic Activation: NONE, Method: PREINCUBATION
[4] = Test System: AMES SALMONELLA TYPHIMURIUM, Strain/Indicator: TA1537, Metabolic Activation: NONE, Method: PREINCUBATION

NC(N)=NC(N)=NCCc1ccccc1
mutagenic call (End Point: IN VITRO CHROMOSOMAL ABERRATIONS, Test System: CHO CELLS, Metabolic Activation: NONE): inactive; negative
mutagenic call (End Point: IN VITRO CHROMOSOMAL ABERRATIONS, Test System: CHO CELLS, Metabolic Activation: RAT, LIVER, S-9, PHENOBARBITAL AND BETA-NAPHTHOFLAVONE): inactive; negative
mutagenic call (Test System: AMES SALMONELLA TYPHIMURIUM, Strain/Indicator: TA98, Metabolic Activation: HAMSTER, LIVER, S-9, AROCLOR 1254 (10%), Method: PREINCUBATION): inactive; negative
mutagenic call [1]: inactive; negative
mutagenic call (Test System: AMES SALMONELLA TYPHIMURIUM, Strain/Indicator: TA98, Metabolic Activation: RAT, LIVER, S-9, AROCLOR 1254 (10%), Method: PREINCUBATION): inactive; negative
mutagenic call (Test System: AMES SALMONELLA TYPHIMURIUM, Strain/Indicator: TA100, Metabolic Activation: HAMSTER, LIVER, S-9, AROCLOR 1254 (10%), Method: PREINCUBATION): inactive; negative
mutagenic call [2]: inactive; negative
mutagenic call (Test System: AMES SALMONELLA TYPHIMURIUM, Strain/Indicator: TA100, Metabolic Activation: RAT, LIVER, S-9, AROCLOR 1254 (10%), Method: PREINCUBATION): inactive; negative
mutagenic call (Test System: AMES SALMONELLA TYPHIMURIUM, Strain/Indicator: TA1535, Metabolic Activation: HAMSTER, LIVER, S-9, AROCLOR 1254 (10%), Method: PREINCUBATION): inactive; negative
mutagenic call [3]: inactive; negative
mutagenic call (Test System: AMES SALMONELLA TYPHIMURIUM, Strain/Indicator: TA1535, Metabolic Activation: RAT, LIVER, S-9, AROCLOR 1254 (10%), Method: PREINCUBATION): inactive; negative
mutagenic call (Test System: AMES SALMONELLA TYPHIMURIUM, Strain/Indicator: TA1537, Metabolic Activation: HAMSTER, LIVER, S-9, AROCLOR 1254 (10%), Method: PREINCUBATION): inactive; negative
mutagenic call [4]: inactive; negative
mutagenic call (Test System: AMES SALMONELLA TYPHIMURIUM, Strain/Indicator: TA1537, Metabolic Activation: RAT, LIVER, S-9, AROCLOR 1254 (10%), Method: PREINCUBATION): inactive; negative

[N-]=[N+]=NC[C@H](O)c1ccccc1
mutagenic call (Test System: AMES SALMONELLA TYPHIMURIUM, Strain/Indicator: TA100, Metabolic Activation: RAT, LIVER, S-9, PCB, Method: PREINCUBATION): active; positive

O=C1CCCc2cc3c(cc21)c([N+](=O)[O-])cc1ccccc13
mutagenic call (Test System: AMES SALMONELLA TYPHIMURIUM, Strain/Indicator: TA98-1,8-DNP6, Metabolic Activation: NONE): inactive; negative
mutagenic call (Test System: AMES SALMONELLA TYPHIMURIUM, Strain/Indicator: TA98-1,8-DNP6, Metabolic Activation: S-9): inactive; negative
mutagenic call (Test System: AMES SALMONELLA TYPHIMURIUM, Strain/Indicator: TA98, Metabolic Activation: NONE): active; positive
mutagenic call (Test System: AMES SALMONELLA TYPHIMURIUM, Strain/Indicator: TA98, Metabolic Activation: S-9): active; positive
mutagenic call (Test System: AMES SALMONELLA TYPHIMURIUM, Strain/Indicator: TA98NR, Metabolic Activation: NONE): inactive; negative
mutagenic call (Test System: AMES SALMONELLA TYPHIMURIUM, Strain/Indicator: TA98NR, Metabolic Activation: S-9): inactive; negative
mutagenic call (Test System: AMES SALMONELLA TYPHIMURIUM, Strain/Indicator: TA100, Metabolic Activation: NONE): active; positive
mutagenic call (Test System: AMES SALMONELLA TYPHIMURIUM, Strain/Indicator: TA100, Metabolic Activation: S-9): active; positive
mutagenic call (Test System: AMES SALMONELLA TYPHIMURIUM, Strain/Indicator: TA100NR, Metabolic Activation: NONE): active; positive
mutagenic call (Test System: AMES SALMONELLA TYPHIMURIUM, Strain/Indicator: TA100NR, Metabolic Activation: S-9): active; positive

C[Si](Cl)Cl
mutagenic call (Test System: AMES SALMONELLA TYPHIMURIUM, Strain/Indicator: TA98, Metabolic Activation: HAMSTER, LIVER, S-9, AROCLOR 1254, Method: PREINCUBATION): inactive; negative
mutagenic call [1]: inactive; negative
mutagenic call (Test System: AMES SALMONELLA TYPHIMURIUM, Strain/Indicator: TA98, Metabolic Activation: RAT, LIVER, S-9, AROCLOR 1254, Method: PREINCUBATION): inactive; negative
mutagenic call (Test System: AMES SALMONELLA TYPHIMURIUM, Strain/Indicator: TA100, Metabolic Activation: HAMSTER, LIVER, S-9, AROCLOR 1254, Method: PREINCUBATION): inactive; negative
mutagenic call [2]: inactive; negative
mutagenic call (Test System: AMES SALMONELLA TYPHIMURIUM, Strain/Indicator: TA100, Metabolic Activation: RAT, LIVER, S-9, AROCLOR 1254, Method: PREINCUBATION): inactive; negative
mutagenic call (Test System: AMES SALMONELLA TYPHIMURIUM, Strain/Indicator: TA1535, Metabolic Activation: HAMSTER, LIVER, S-9, AROCLOR 1254, Method: PREINCUBATION): inactive; negative
mutagenic call [3]: inactive; negative
mutagenic call (Test System: AMES SALMONELLA TYPHIMURIUM, Strain/Indicator: TA1535, Metabolic Activation: RAT, LIVER, S-9, AROCLOR 1254, Method: PREINCUBATION): inactive; negative
mutagenic call (Test System: AMES SALMONELLA TYPHIMURIUM, Strain/Indicator: TA1537, Metabolic Activation: HAMSTER, LIVER, S-9, AROCLOR 1254, Method: PREINCUBATION): inactive; negative
mutagenic call [4]: inactive; negative
mutagenic call (Test System: AMES SALMONELLA TYPHIMURIUM, Strain/Indicator: TA1537, Metabolic Activation: RAT, LIVER, S-9, AROCLOR 1254, Method: PREINCUBATION): inactive; negative
mutagenic call (Test System: AMES SALMONELLA TYPHIMURIUM, Strain/Indicator: TA1538, Metabolic Activation: HAMSTER, LIVER, S-9, AROCLOR 1254, Method: PREINCUBATION): inactive; negative
mutagenic call (Test System: AMES SALMONELLA TYPHIMURIUM, Strain/Indicator: TA1538, Metabolic Activation: NONE, Method: PREINCUBATION): inactive; negative
mutagenic call (Test System: AMES SALMONELLA TYPHIMURIUM, Strain/Indicator: TA1538, Metabolic Activation: RAT, LIVER, S-9, AROCLOR 1254, Method: PREINCUBATION): inactive; negative
mutagenic call (Test System: MOUSE LYMPHOMA, Strain/Indicator: L5178Y (TK+/TK-), Metabolic Activation: NONE, Method: SUSPENSION/PLATE): inactive; negative. reevaluation of results: negative
mutagenic call (Test System: MOUSE LYMPHOMA, Strain/Indicator: L5178Y (TK+/TK-), Metabolic Activation: RAT, LIVER, S-9, AROCLOR 1254, Method: SUSPENSION/PLATE): inactive; negative. reevaluation of results: negative

CC(C)CCO
mutagenic call (Test System: CHINESE HAMSTER V-79, Strain/Indicator: V-79 (HPRT)/6-THIOGUANINE, Metabolic Activation: NONE, Method: STANDARD PLATE): inactive; negative
mutagenic call (Test System: CHINESE HAMSTER V-79, Strain/Indicator: V-79 (HPRT)/6-THIOGUANINE, Metabolic Activation: RAT LIVER S-9, Method: STANDARD PLATE): inactive; negative
mutagenic call (Test System: CHINESE HAMSTER V-79 CELLS, Strain/Indicator: V-79 CELLS (HPRT)/6-THIOGUANINE, Metabolic Activation: NONE, Method: PREINCUBATION): inactive; negative
mutagenic call (Test System: CHINESE HAMSTER V-79 CELLS, Strain/Indicator: V-79 CELLS (HPRT)/6-THIOGUANINE, Metabolic Activation: S-9 (3%), Method: PREINCUBATION): inactive; negative

COc1cc(COC(=O)CCCCCCC(C)C)ccc1O
mutagenic call (End Point: In vivo micronucleus, Test System: Bone marrow polychromatic erythrocytes, Species: Mouse, Strain/Sex: BDF1/male, Route: Oral): inactive; negative
mutagenic call (Test System: Ames Salmonella typhimurium, Strain/Indicator: TA98, Metabolic Activation: None, Method: Preincubation): inactive; negative
mutagenic call (Test System: Ames Salmonella typhimurium, Strain/Indicator: TA98, Metabolic Activation: Rat, Liver, S-9, Phenobarbital and 5,6-benzoflavone, Method: Preincubation): inactive; negative
mutagenic call (Test System: Ames Salmonella typhimurium, Strain/Indicator: TA100, Metabolic Activation: Rat, Liver, S-9, Phenobarbital and 5,6-benzoflavone, Method: Preincubation): inactive; negative
mutagenic call (Test System: Ames Salmonella typhimurium, Strain/Indicator: TA1535, Metabolic Activation: None, Method: Preincubation): inactive; negative
mutagenic call (Test System: Ames Salmonella typhimurium, Strain/Indicator: TA1535, Metabolic Activation: Rat, Liver, S-9, Phenobarbital and 5,6-benzoflavone, Method: Preincubation): inactive; negative
mutagenic call (Test System: Ames Salmonella typhimurium, Strain/Indicator: TA1537, Metabolic Activation: Rat, Liver, S-9, Phenobarbital and 5,6-benzoflavone, Method: Preincubation): inactive; negative
mutagenic call (Test System: E. coli, Strain/Indicator: WP2 uvrA, Metabolic Activation: None, Method: Preincubation): inactive; negative
mutagenic call (Test System: E. coli, Strain/Indicator: WP2 uvrA, Metabolic Activation: Rat, Liver, S-9, Phenobarbital and 5,6-benzoflavone, Method: Preincubation): inactive; negative

C=C(C)C1CCC(=C)C2C3=C(C[C@H](C)C3=O)C(=O)C(C)=C[C@@H]12 (some centres undefined)
mutagenic call (Test System: AMES SALMONELLA TYPHIMURIUM, Strain/Indicator: TA98, Metabolic Activation: NONE, Method: STANDARD PLATE): inactive; negative
mutagenic call (Test System: AMES SALMONELLA TYPHIMURIUM, Strain/Indicator: TA98, Method: STANDARD PLATE): inactive; negative
mutagenic call (Test System: AMES SALMONELLA TYPHIMURIUM, Strain/Indicator: TA100, Metabolic Activation: NONE, Method: STANDARD PLATE): inactive; negative
mutagenic call (Test System: AMES SALMONELLA TYPHIMURIUM, Strain/Indicator: TA100, Method: STANDARD PLATE): inactive; negative
